The values below come from patent US20110064694A1, “ANTI-HEPATITIS C ACTIVITY OF MESO-TETRAKIS-PORPHYRIN ANALOGUES” (YALE UNIVERSITY, priority 2009, published 2011).

Like-named read-outs stand apart in the source and are kept apart here. Bounds are passed on as bounds.

Series [1] has as its system HCV genotype 1b (Con1) replicon cells Huh-luc/neo-ET. The protocol: Reversibility of the action of compound 6 against genotype 1b HCV replicon. Huh-luc/neo-ET cells were seeded at a density of 2×10^5 cells per well in a 6-well plate, and were incubated for 12 days with DMSO control or up to 1 μM of compound 6 in the absence of G418. Cells were split every three days when media and compounds were replenished, and samples were collected for RNA quantification. compound 6 was removed on Day 12 when cells were split and cultured in the presence of 250 μg/ml of G418. Replicon cells were continuously monitored for another 12 days, during which cells were split and sampled whenever reaching confluence. Cell viability was measured by CellTiter-Glo luminescent cell viability assay following manufacturer's procedures (Promega), and the HCV RNA was quantitated by qRT-PCR and normalized as described above.
The goal of anti-HCV treatment is to completely eliminate the virus from infected cells. In order to assess the reversibility of the antiviral action and the possibility of replicon clearance, we incubated Huhluc/neo-ET cells with increasing concentrations of compound 6 for […] free from G418 (FIG. 4). On Day 12 compound 6 was removed and 250 μgml G418 was reintroduced while the replicon RNA level and cell growth were monitored for another 12 days.

For series [2], the system named is HCV genotype 1b (Con1) replicon. Here is the method: (§1) Quantification of HCV RNA and NS5A protein. Huhluc/neo-ET cells were seeded at the density of 1×10^5 cells per well in 6-well plate and treated with either DMSO control or up to 250 nM of compound 6. Cells were harvested after 24, 48, or 72 hrs of incubation and subjected to luciferase activity assay, RNA quantification and immunoblotting. Results were averaged from three independent repeats. Luciferase activity assay was done in triplets per experiment as aforementioned and RLU reading was normalized against the total protein level per sample determined from Bradford assay. Total RNA was isolated using RNeasy Mini Kit (QIAGEN) and the RNA concentrations were measured by spectrophotometry (GE Healthcare) followed by dilution into 50 ng/μL. Replicon RNA was quantitated in triplicates by amplifying the HCV 5′UTR using one-step real-time reverse transcriptase polymerase chain reactions (qRT-PCR). Each 20 μL replicate contained 100 ng of total RNA, 100 nM probe (6FAM-5′-[…]-3′-MGBNFQ, Applied Biosystems) and 200 nM forward and reverse primers (5′-[…]-3′, and 5′-[…]-3′ respectively, Yale University W.M. Keck Facility) (21), together with iScript reverse transcriptase and reaction mix for one-step RT-PCR (Bio-Rad Laboratories). Reactions were run in the iCycler iQ RealTime thermocycler detection system (Bio-Rad Laboratories) as follows: 10 min at 50° C., 5 min at 95° C., followed by 42 cycles at 95° C. for 15 sec and 60° C. for […]. Results were normalized against the β-actin mRNA levels in each sample (20).

Series [3] has as its system mitochondrial DNA content of CEM cells. Kind of series: Mitochondrial DNA toxicity, slot blot of CEM cell lysates. It is filed as cell-based. Here is the method:
Quantitation of mitochondrial DNA content was performed as previously published (18). Briefly, CEM cell lysates were spotted onto Hybond paper using the Miliford II slot blot apparatus (Schleicher & Schuell). MTDNA was detected with mtDNA-specific probe and then reprobed with Alu probe for internal control. The autoradiographic bands were quantified on scanning densitometer (Molecular Dynamics).

The next series addresses cytochrome c (Equus caballus, UniProt P00004). The conditions noted are these: read-out: Kd, binding to cyt c; cited from earlier work.
In series [4] the test system is HCV genotype 1b (Con1) replicon RNA. Put plainly: HCV RNA quantification by qRT-PCR in Huh-luc/neo-ET cells. Type of series: cell-based, Hepatitis C virus. The conditions noted are these: for EC50: qRT-PCR, estimated. Here is the method: as §1
Activity of compound 6 against genotype 2a (JFH-I) replicons. In parallel to Huh-luc/neo-ET cells, 1×10^5 YSGR-JFH cells per well were incubated with DMSO control, compound 6, or recombinant human IFNα-2a (Pestka Biomedical Laboratories) in 6-well plates. Cells were harvested after 72 hrs of co-incubation and HCV RNAs were quantitated by qRT-PCR and normalized as described above.

Series [5] deals with mitochondrial potential of Huh-luc/neo-ET cells. The conditions noted are these: up to 1 M for 9 days, compared with mock-treated control. The protocol: We treated Huh-luc/neo-ET cells with up to 1 µM of compound 6 for 9 days, during which the media were replenished every 3 days and the cells were passaged once. Live cells were stained with the ratiometric indicator JC-1 (Invitrogen) in order to measure the mitochondrial potential using confocal microscopy.

The test system of the next series is HIV-1 IIIB. Put plainly: Anti-HIV activity in MT-2 cells, MTT quantitation of viral CPE. Type of series: cell-based. The conditions noted are these: MT-2 cells, 5 days; read-out: Antiviral Activity EC50 HIV-1 IIIB. Here is the method:
Determination of antiviral activities. Ff-luciferase reporter activity was used to monitor the replication of HCV replicons in Huhluc/neo-ET cells free from G418. Replicon cells were seeded at the density of 5×10^3 cells per well in 96-well plates. The following day, replicon cells were incubated in duplicates with DMSO or serially diluted tetraphenylporphyrin (TPP) analogues at 37″C. 72 hrs after co-incubation, cells were lysed with ice-cold passive lysis reagent after PBS wash, and the luciferase activity was measured with the luciferase assay kit (Promega) and Tecan FARCyte luminometer (GE Healthcare) following the manufacturers' descriptions. The relative light units (RLU) were adjusted as percentage readings of the compound-free controls and the 50% effective concentration (EC50) was determined from dose-effect curve by nonlinear regression analysis using Origin 6.1 (OriginLab Software). TPP analogues were also screened in vitro against HIV-I IIIB and HBV as previously described (26,41). Briefly 1×10^3 MT-2 cells per well were exposed in triplets to 0.1TC1D50/cell (50% of the tissue culture infectious dose) of HIV-1 IIIB and cultured in the presence of compounds. The EC50 values were estimated by MTT-based colorimetric quantitation of viral CPE after 5 days. Anti-HBV activities were evaluated in 2.2.15 cells by means of Southern DNA hybridization.

Another series deals with CEM cells. Put plainly: Cytotoxicity in CEM cells. The conditions noted are these: read-out: Cytotoxicity CC50 CEM.

Sequence of cytochrome c (P00004 2-105 limits assumed): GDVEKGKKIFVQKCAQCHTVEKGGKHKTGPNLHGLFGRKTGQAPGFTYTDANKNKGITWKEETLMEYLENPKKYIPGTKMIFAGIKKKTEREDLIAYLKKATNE

In general, EC50 refers to the concentration at which the effect is half-maximal. The term IC50 denotes the point on the concentration scale where inhibition reaches its midpoint. As a reminder, the Kd is a measure of binding affinity in units of concentration. A word on the CC50: it is the concentration that lowers cell viability or growth by half. Regarding `O=C(O)c1cc(C(=O)O)cc(-c2ccc(-c3c4nc(c(-c5ccc(-c6cc(C(=O)O)cc(C(=O)O)c6)cc5)c5ccc([nH]5)c(-c5ccc(-c6cc(C(=O)O)cc(C(=O)O)c6)cc5)c5nc(c(-c6ccc(-c7cc(C(=O)O)cc(C(=O)O)c7)cc6)c6ccc3[nH]6)C=C5)C=C4)cc2)c1` [Compound 6, Meso-teftakis-(3,5-dicarboxy-4,4′-biphenyl)porphyrin], the “cells surviving under G418” value came to 8.5% in series [1] (50 nM for 12 days, 6 days after the removal of inhibitor); 0.007% in series [1] (100 nM for 12 days, end of the experiment); 0.4% in series [1] (300 nM for 9 days, 15-day rebound period with G418). For the same compound, in series [1] (50 nM for 12 days, 12 days after removal of inhibitor), the replicon-positive cells rebounded is on record as 13.1%. The “cell viability after G418 reintroduction” value in series [1] (300 nM and 1 μM for 12 days, 9 days after coincubation with G418) is “no longer viable”. Moreover, the “reduction in the HCV RNA levels” value in series [1] (300 nM and above, after 12 days of exposure) is given as “approximately 4.5 1o916”. Besides, the replicon clearance result in series [1] (1 μM for 9 days, 15-day rebound period with G418) is “achieved complete “cure””. For the same compound, the “toxicity in cells during the 12-day treatment” value in series [1] (up to 1 μM, 12 days) was “did not cause significant toxicity”. In addition, the “improvement of 72-hr EC50 compared with 24-hrs incubation, luciferase” value in series [2] (72 hr vs 24 hr) is on record as “over 3 fold”. The concentration for a half-maximal effect (EC50) was 0.0578 µM in series [2] (read-out: 24-hr EC50, replicon luciferase activity, 24 hrs incubation); 0.0192 µM in series [2] (read-out: 48-hr EC50, replicon luciferase activity, 48 hrs incubation); 0.0176 µM in series [2] (read-out: 72-hr EC50, replicon luciferase activity, 72 hrs incubation); 0.0678 µM in series [4] (24 hrs, read-out: 24-hr EC50, HCV RNA level); 0.0362 µM in series [4] (48 hrs, read-out: 48-hr EC50, HCV RNA level); 3.67 ± 1.22 µM in the series with HIV-1 IIIB. For the same compound, in series [3], the “effect on amount of mitochondrial DNAs” value was “did not alter the amount of mitochondrial DNAs”. Also, the IC50 in series [3] (CEM cells, read-out: Mitochondrial DNA Toxicity IC50 CEM) was more than 50 µM. The dissociation constant Kd at cytochrome c is 1.5 ± 0.17 µM. In series [4] (72 hr vs 24 hr), the “improvement of 72-hr EC50 compared with 24-hr incubation, HCV RNA” value is on record as “over 2 fold”. Also, in series [5], the “effect on mitochondrial potential” value is listed as “did not affect the mitochondrial potential”. In the series with CEM cells, the CC50 is more than 50 µM.
